Data on three molecules can be found in US20240150301A1, “METHODS OF MODULATING ANDROGEN RECEPTOR CONDENSATES” (ETERN BIOPHARMA (SHANGHAI) CO., LTD., priority 2021, published 2024).

Assay [1] has as its target T1, AR-mEGFP nuclear puncta in LNCaP cells (Homo sapiens, UniProt P10275).
T1 construct: expressed in transfected cells; host or cells: LNCaP
T1 sequence (P10275 1-920): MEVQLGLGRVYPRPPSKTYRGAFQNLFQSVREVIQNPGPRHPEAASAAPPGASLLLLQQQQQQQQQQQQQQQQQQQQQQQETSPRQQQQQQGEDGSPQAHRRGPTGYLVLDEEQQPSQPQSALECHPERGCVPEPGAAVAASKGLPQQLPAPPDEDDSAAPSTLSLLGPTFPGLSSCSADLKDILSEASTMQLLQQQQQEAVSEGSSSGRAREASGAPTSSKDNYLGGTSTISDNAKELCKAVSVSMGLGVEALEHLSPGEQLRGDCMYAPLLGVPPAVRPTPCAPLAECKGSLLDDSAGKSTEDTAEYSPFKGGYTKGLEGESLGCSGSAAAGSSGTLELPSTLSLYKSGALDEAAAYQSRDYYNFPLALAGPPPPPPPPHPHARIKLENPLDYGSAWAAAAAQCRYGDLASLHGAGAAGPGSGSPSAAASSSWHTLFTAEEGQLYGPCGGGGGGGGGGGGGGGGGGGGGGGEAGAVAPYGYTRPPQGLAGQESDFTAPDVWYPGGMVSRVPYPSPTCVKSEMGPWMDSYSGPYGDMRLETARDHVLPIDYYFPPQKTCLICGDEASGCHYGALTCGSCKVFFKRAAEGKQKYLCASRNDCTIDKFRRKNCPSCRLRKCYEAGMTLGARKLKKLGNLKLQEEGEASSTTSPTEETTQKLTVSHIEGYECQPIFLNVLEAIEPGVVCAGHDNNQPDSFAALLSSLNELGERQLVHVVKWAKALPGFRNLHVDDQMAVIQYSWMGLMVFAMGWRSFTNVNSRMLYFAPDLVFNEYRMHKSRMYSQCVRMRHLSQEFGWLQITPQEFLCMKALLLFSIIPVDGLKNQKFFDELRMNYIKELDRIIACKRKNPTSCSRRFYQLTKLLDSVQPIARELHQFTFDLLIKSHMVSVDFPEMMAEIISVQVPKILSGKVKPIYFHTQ
Nature of the assay: AR phase separation inhibition IC50 testing (nuclear puncta imaging). The class given is cell-based. Particulars: for IC50: LNCaP, compound 3 h before 20 nM DHT, 3 h DHT. Here is the method:
Nuclear Puncta Imaging for Compounds IC50 Determination • LNCaP cells were cultured in a 10-cm dish. Cells were transfected with AR (AR or AR F877L/T878A)-mEGFP expression plasmids (pMSCV vector, 12 μg plasmid per 10-cm dish). 12 hours after transfection, medium were replaced with steroid hormone-free and phenol red-free RPMI1640 (starvation medium) and continued to starve for another 24 hours. Cells (80 μl, 20,000 per well) were seeded in a 96-well glass bottom plate (Cellvis, P96-1.5H-N) and cultured for another 24 hours. Then cells were incubated with 10× serial-diluted compounds […] for 3 hours before 20 nM DHT stimulation […]. After 3 hours DHT addition, cells were fixed with equal volume pre-warmed 8% PFA for 30 minutes and subsequently replaced with 100 μl PBS. Nuclear puncta images were acquired with Operetta CLS (Perkin Elmer) equipped with 60× water immersion lens (40 fields per well). The images were analyzed with Operetta built-in analysis modules. Nuclei were found from illumination corrected images with find nuclei module (type M) and filtered out low intensity nuclei. Subsequently puncta were first identified using find spot module (type A) and classified to high confident puncta and low confident puncta with PhenoLOGIC machine learning plug-in. For better representation, only high confident puncta were kept. The analyzed image puncta data were exported and statistics were processed with R/Bioconductor. The specific IC50 values were calculated by R/drc package (four-parameter log-logistic function).

The subject of assay [2] is 22Rv1 cells. The assay can be described thus: Cell proliferation assay (CellTiter-Glo), 22Rv1. The class given is cell-based. Conditions: Homo sapiens, 22Rv1, 96 h; 4 days; read-out: 22Rv1 IC50 AR-positive; AR-V7 positive (cell proliferation). The protocol:
(§1) To evaluate the effect of exemplary compounds on proliferation of AR/AR-V7-dependent prostate cancer cells, cell viability assay was performed in LNCaP (AR-positive), 22Rv1 (AR-positive; AR-V7 positive), VCaP (AR-positive; AR-V7 positive), and DU145 (AR-negative) cells, respectively.
(§2) LNCaP cells were seeded in charcoal stripped FBS/phenol red-free RPMI medium in 96-well plates for 24 h before pretreating for 1 h with test compounds prior to addition of 0.2 nM DHT for 4 days. 22Rv1 or VCaP cells were cultured in charcoal stripped FBS/phenol red-free RPMI medium for 24 h before addition of test compounds for 4 days. DU145 cells were seeded in complete medium for 24 h before addition of test compounds for 4 days. Cell proliferation was measured with CellTiter-Glo® Luminescent Cell Viability Assay (Promega). In LNCaP cells, DHT-dependent cell growth is calculated by measuring the difference between vehicle control (DMSO) cells treated with or without 0.2 nM DHT. The IC50 values were determined using the four parameter fit via GraphPad Prism graphing software.
For orientation: In ATP-based viability assays light output follows the ATP content of the culture.

Assay [3] has as its system AR or AR-V7 downstream target genes. The assay can be described thus: AR/AR-V7 target gene qPCR assay in 22Rv1 cells. In kind it is cell-based, human. Particulars: 22Rv1, 48 h, RT-qPCR. The protocol:
To evaluate the effect of exemplary compounds on mRNA expression of AR or AR-V7 downstream target genes, real-time quantitative PCR measurements were performed in prostate cancer cell line 22Rv1 expressing both AR and AR-V7.
22Rv1 cells were cultured in charcoal stripped FBS/phenol red-free RPMI medium for 24 h, and then treated with DMSO or test compounds for additional 48 h prior to RT-qPCR. Briefly, RNA was isolated from cells using RNeasy Mini Kit (Qiagen) following the manufacturer's protocol. RNA was reverse transcribed and subjected to qPCR using PowerUp™ SYBR™ Green Master Mix (Applied Biosystems). The relative quantity of the target genes was calculated using the ΔΔCt method by comparing Ct of the target genes and mean Ct of the housekeeping gene GAPDH.
(Real-time PCR tracks product formation cycle by cycle.)

Assay [4] deals with DU145 cells. The assay can be described thus: Cell proliferation assay (CellTiter-Glo), DU145. In kind it is cell-based. Particulars: Homo sapiens, DU-145, 96 h; 4 days; read-out: DU145 IC50 AR-negative (cell proliferation). The protocol:
as §1, §2

The structures appear in SMILES notation.

As for `CC(C)(c1ccc(C#Cc2cnc(NS(C)(=O)=O)nc2)cc1)c1cc(Cl)c(OCCCl)c(C#N)c1` [Compound 60, N-(5-((4-(2-(3-chloro-4-(2-chloroethoxy)-5-cyanophenyl)propan-2-yl)phenyl)ethynyl)pyrimidin-2-yl)methanesulfonamide], in assay [1], the “AR phase separation (FIG. 7)” value is “inhibited AR phase separation” and the IC50 amounted to 2.5 µM.
As for `CC(C)(c1ccc(OCc2ccnc(N=S3(=O)CCNCC3)n2)cc1)c1cc(Cl)c(OCCCl)c(C#N)c1` [Compound 6, 3-chloro-2-(2-chloroethoxy)-5-(2-(4-((2-((1-oxido-1λ^6-thiomorpholin-1-ylidene)amino)pyrimidin-4-yl)methoxy)phenyl)propan-2-yl)benzonitrile], the values for the IC50 in assay [2], in assay [1] and in assay [4] were 3.24 µM, 3.6 µM and more than 20 µM, respectively. For the same molecule, in assay [1], the “AR phase separation (FIG. 7)” value is recorded as “inhibited AR phase separation”. Further, the “mRNA expression of target genes of either AR or AR-V7” value in assay [3] is recorded as “inhibited mRNA expression”.
The matching figures for `CC(C)(c1ccc(OCc2ccnc(NS(C)(=O)=O)n2)cc1)c1cc(Cl)c(OCCCl)c(C#N)c1` [Compound AA, N-(4-((4-(2-(3-chloro-4-(2-chloroethoxy)-5-cyanophenyl)propan-2-yl)phenoxy)methyl)pyrimidin-2-yl) methane sulfonamide, reference compound]: more than 20 µM, more than 20 µM, 17.2 µM, “did not show inhibition” and “inhibited mRNA expression”.
